This note sets out measurements from patent US11957712B2, “Application of a hydrogel in the preparation of products for the treatment of bacterial infections” (Shaanxi University of Science & Technology, priority 2022, dated 2024).

For assay [1], the system named is S. aureus. Here is the method:
Ferrous sulfate aqueous solutions were configured to final concentrations of 1, 4, 16, and 64 μM, respectively, and ampicillin and vancomycin as positive controls were configured to 100 μg/mL, as well as ultrapure water without ferrous sulfate was set as a blank control group. Then 10^8 CFU/mL of S. aureus and MRSA were prepared. The cell suspensions were added with FeSO4 at final concentrations of 0, 1, 4, 16, 64 μM, respectively, and incubated at 37° C. 200 rpm for 12 h. […] After incubation, S. aureus cells were collected by centrifugation, suspended in 1 mL of normal saline solution, and subjected to 10-fold serial dilutions. Finally, 6 dilutions of each condition were plated on TSB agar, and the colony form units (CFU) were enumerated after incubation at 37° C. overnight.

The subject of assay [2] is Staphylococcus aureus. Particulars: 100 μM, 12 h treatment, approximately 10^8 CFU/mL.
Procedure: To verify the antibacterial activity of ferrous ions against Staphylococcus aureus, the following tests were done: • 1. […] 96-well plate method was used to test the drug sensitivity of 9 ferrous salts against Staphylococcus aureus (approximately 10^8 CFU/mL). After 12 h treatment, the total number of bacterial colonies was determined followed by drop plate method to further investigate the antibacterial effect of iron ions on Staphylococcus aureus.
For assay [3], the system named is Enterobacter sakazakii. Particulars: 16 μM ferrous sulfate, 12 h, FIG. 8B. How it is done:
(§1) Ferrous sulfate aqueous solutions were configured to a final concentration of 16 μM; and prepare 10^8 CFU/mL of Escherichia coli, Listeria monocytogenes, Vibrio Parahemolyticus, Enterobacter sakazakii, Staphylococcus aureus and MRSA. A 96-well plate assay was performed to determine the susceptibility of six pathogenic bacteria to ferrous sulfate, and after 12 h treatment, the total number of bacterial colonies was determined in a drop-plate assay to further investigate the effect of ferrous ions on their inhibition.

Assay [4] has as its system MRSA. Particulars: 16 μM ferrous sulfate, 12 h, 10^8 CFU/mL. How it is done:
as §1

In assay [5] the test system is Staphylococcus aureus. Particulars: 16 μM ferrous sulfate, 12 h, 10^8 CFU/mL. How it is done: as §1
For assay [6], the system named is Listeria monocytogenes. Particulars: 16 μM ferrous sulfate, 12 h, FIG. 8B. Here is the method: as §1
Assay [7] relates to Vibrio Parahemolyticus. Particulars: 16 μM ferrous sulfate, 12 h, FIG. 8B. Here is the method: as §1
Assay [8] relates to Escherichia coli. Particulars: 16 μM ferrous sulfate, 12 h, FIG. 8B. How it is done: as §1

As to ferrous sulfate, in assay [1] (37° C., 200 rpm, 12 h, 10^8 CFU/mL), the “MBC (lowest concentration required to kill 99.99% cells of S. aureus)” value was 16 µM. In addition, in assay [1] (at 16 μM (MBC)), the bactericidal rate turned out to be 99.99%. For the same substance, the “inhibition of the growth of S. aureus” value in assay [2] is recorded as about 100%. For the same substance, the bactericidal effect entry in assay [3], in assay [6], in assay [7] and in assay [8] was “strong bactericidal effect” throughout. Further, the “survival of MRSA” value in assay [4] was “less than 0.01%”. For the same substance, the “survival rate of S. aureus” value in assay [5] was “less than 0.001%”.
